Literature values as cited in patent US6653293B1, “Methods, apparatuses and medicaments for treating body fluid related diseases” (priority 1992, dated 2003).

Tested on: infected T-4 lymphocytes
Details: in vitro, HIV-infected T-4 lymphocytes

Substance: tumor necrosis factor [TNF]
- death of infected cells: subjects the infected cells to death
- time to coagulation of DNA of the infected T-4 lymphocytes after administration: about 3 hours
